ChEMBL document CHEMBL1146448, “Cavernosolide, a New Sesterterpene from a Tyrrhenian Sponge” (J Nat Prod, 1997)
≈ marks a conversion by molar mass, not a printed value.

Assays:
[1] = Toxicity in Artemia salina; format: organism-based; details: in vivo
[2] = Toxicity in Gambusia affinis; format: organism-based; details: in vivo

CC(=O)O[C@H]1O[C@@H](C2=CC(=O)O[C@@H]2O)C[C@@H]2[C@@H]1CC[C@H]1[C@@]2(C)CC[C@H]2C(C)(C)CCC[C@]12C [CAVERNOSOLIDE]
LC50 [1]: 0.37 µg/mL (≈ 0.803 µM)
LC50 [2]: 0.75 µg/mL (≈ 1.63 µM)
